The target in one experiment is T1, CDC25B (Homo sapiens, UniProt P30305).
T1 construct: Recombinant forms of the catalytic domains of CDC25A, -B and -C were obtained through the vectors pET28a-CDC25A-cd, pET28a-CDC25B-cd and pET28a-CDC25C-cd; made in house
T1 sequence (P30305 431-538 limits assumed): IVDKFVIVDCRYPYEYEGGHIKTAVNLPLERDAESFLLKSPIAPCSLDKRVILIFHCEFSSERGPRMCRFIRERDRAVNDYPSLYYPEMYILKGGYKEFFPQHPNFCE
Nature of the experiment: Residual phosphatase activity of recombinant CDC25B, fluorimetric OMFP assay. The class given is biochemical. The note with it: 10 nM CDC25B, 25 μM OMFP, read-out: CDC25B residual activity (%) in the presence of [inhibitor]. The procedure:
Among the twenty-five structures identified from the multiple ligand-based chemoinformatic approach, eight compounds (2, 10, 12–14, and 16–18) were excluded from the analysis, because endowed with a strong fluorescent signal, which interfered with the emission wavelength of the synthetic substrate 3-O-methylfluorescein phosphate (OMFP) used in the fluorimetric assay. The inhibition of the phosphatase activity of CDC25B by the remaining seventeen analogs was evaluated in the presence of two different concentrations of these compounds (Table 2). […] For this reason, only one of these latter compounds, i.e. 3, was included in the following analysis.
The enzymatic activity of the catalytic domains of CDC25A, -B and -C were determined through a fluorimetric method, which monitored the dephosphorylation of the synthetic substrate OMFP, essentially as previously described. In steady-state enzyme kinetic studies, the residual phosphatase activity of purified recombinant CDC25B was measured at 30°C in the presence of different concentrations of the various inhibitors, using a computer-assisted Cary Eclipse spectrofluorimeter (Varian) equipped with an electronic temperature controller. Excitation and emission wavelengths were set at 485 and 530 nm, respectively; both excitation and emission slits were set at 10 nm. The reaction mixture contained 10 nM CDC25B and different concentrations of the various inhibitors in 500 μL final volume of 20 mM Tris-HCl, pH 7.8, 1 mM DTT. DMSO was used as vehicle control. The reaction started by the addition of 25 μM OMFP, and the formation of the fluorescent product o-methylfluorescein was monitored continuously. The rate of OMFP hydrolysis was expressed as arbitrary units per min (a.u./min). The comparison of the rates determined in the absence and in the presence of the various inhibitors allowed the calculation of the residual phosphatase activity, expressed as a percentage.

For the next experiment, the target named is T2, CDC25C (Homo sapiens, UniProt P30307).
T2 construct: Recombinant forms of the catalytic domains of CDC25A, -B and -C were obtained through the vectors pET28a-CDC25A-cd, pET28a-CDC25B-cd and pET28a-CDC25C-cd; made in house
T2 sequence (P30307 321-428 limits assumed): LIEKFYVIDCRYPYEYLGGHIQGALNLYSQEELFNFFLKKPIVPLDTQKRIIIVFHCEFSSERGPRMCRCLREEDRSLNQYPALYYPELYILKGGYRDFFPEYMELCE
Nature of the experiment: Ki from OMFP hydrolysis kinetics (Lineweaver-Burk), CDC25C. The class given is biochemical. Particulars: 40 nM CDC25C, 1–25 μM OMFP; mean ± S.E.; read-out: Ki CDC25C. The procedure: To measure the inhibition constant (Ki) of the recombinant forms of CDC25A, -B and -C towards the various inhibitors, the affinity of the different forms of CDC25 towards OMFP was measured either in the absence or in the presence of fixed concentrations of the various inhibitors. The reaction mixture contained 20 nM CDC25A, or 10 nM CDC25B, or 40 nM CDC25C, and different concentrations of the various inhibitors in 500 μL final volume of 20 mM Tris-HCl, pH 7.8, 1 mM DTT. DMSO was used as vehicle control. […] The corresponding Lineweaver-Burk plots allowed the calculation of the KM for OMFP and of the Vmax of OMFP hydrolysis, expressed as a.u./minmax. […] The Ki values were obtained from the decrease of a.u./minmax in the presence of the inhibitor, according to the equation a.u./mimmax’ = a.u./mimmax/{1 + ([I]/Ki)}, where a.u./mimmax’ represents the Vmax measured in the presence of the concentration [I] of the inhibitor. The Ki values were obtained from at least three independent experiments and reported as mean ± S.E.

In the next experiment the test system is pAkt protein levels. The experiment in a line: Western blotting of pAkt (Ser473) in SAN cells. Type of experiment: cell-based, human. The note with it: 100 μM, 1 or 2 h. The procedure:
The molecular mechanisms that regulate the cytotoxic potential of 7 in melanoma cells were further investigated through the evaluation of the activation state of protein kinase B (pAkt), one of the key proteins involved in the control and regulation of cell survival. To this aim, the protein levels of pAkt have been analyzed after 2- and 4-h incubation of A2058 cells with 7. […] It is known that Akt regulates the process of cell survival by phosphorylating different substrates, directly or indirectly involved in the apoptotic program. One of these targets is p53, a protein with a tumor-suppressor activity that regulates the cell cycle, as well as the expression of several genes involved in the apoptosis. […]
A2058 cells were seeded into 6-well-plates (3 × 10^5 cells/plate) for 24 h at 37°C and then treated at different times with 100 μM compound 7 or 0.5% DMSO. […] The protein concentration was determined by the method of Bradford, using bovine serum albumin (BSA) as standard. […] Membranes were then analysed by an enhanced chemiluminescence reaction, using Super Signal West Pico kit (Pierce) according to manufacturer's instruction; signals were visualized by autoradiography. […]
0.5% DMSO or 100 μM compound 7 for 1 or 2 h, were analyzed by Western blotting using an antibody raised against pAkt (Ser473). […]
For orientation: Immunoblotting shows a protein as a band on a membrane.

Each structure is given as a SMILES string.

From paper PMC4741889, “Ligand-based chemoinformatic discovery of a novel small molecule inhibitor targeting CDC25 dual specificity phosphatases and displaying in vitro efficacy against melanoma cells” (Oncotarget, 2015) come the findings set out here.

Consider `O=C(O)C1CCCCC1c1c2ccc(=O)cc-2oc2cc(O)ccc12` (stereo not shown) [Compound 7, 2-(6-hydroxy-3-oxo-3H-xanthen-9-yl)cyclohexanecarboxylic acid], for which, on CDC25B (0.2 μM inhibitor), the remaining activity at 0.2 µM turned out to be 44%. Also, at CDC25B (1 μM inhibitor), the remaining activity at 1 µM came out at 1%. At CDC25C, the Ki (usually the dissociation constant of the complex between target and ligand, obtained from inhibition or displacement) worked out at 3.1 ± 0.22 µM. The “Akt activation (pAkt)” value in the experiment with pAkt protein levels is “early reduction of Akt activation”.
